{
  "source": "patent US6384304B1",
  "about": "“Conditional sterility in wheat” (Plant Genetic Systems N.V., priority 1999, dated 2002)",
  "tested_on": "Triticum aestivum plants",
  "details": "0.1% active ingredient, microdroplets on leaf blades, stage 32, outdoor; radioactivity measurements and autoradiography at different time points",
  "description": "Plant treatment: The application solution of the formulated test compound was applied in the form of microdroplets by syringe to the blades (adaxial surface) of the fuilly developed leaves. A volume of 20 μl each was applied to the 3rd or 4th leaf of the main shoot and of two tillers per plant (=a total of 60 μl application solution per plant.). Plants were kept under outdoor conditions and uptake and translocation of the test substance was analyzed at different stages.\nSampling of Leaf Tissue was Carried Out at the Following Time Points:\n1) 1 week after treatment\n2) 3 weeks after treatment\nProcessing of Collected Samples for quantitative Determinations:\nFor the sampling done at time points 1, 2 and 3, the treated leaf blades were cut off and the non-absorbed test compound was washed from the treated leaf blades by 2 consecutive short washes with water. Subsequently plants were dissected further, resulting in the following parts: […]\nRadioactivity was quantified in the different plant parts and in the washing solutions and was calculated as equivalents of the labeled compounds. […]\nFor the sampling time point 4, radioactivity is determined in the grains only and is calculated as equivalents of the labeled test compound. […]\nIn addition to the quantitative radioactivity measurements the distribution of radioactivity is determined by autoradiography in plants of the sampling time points 1 and 2.",
  "data": [
    {"compound": "CC(=O)N[C@@H](CCP(C)(=O)[O-])C(=O)[O-].[Na+].[Na+]", "note": "[N-acetyl PPT, dinatrium L-2-acetamido-4-methylphosphinato-butyrate-[3^14C, 4^14C]]", "values": [
      {"measurement": "foliar uptake in wheat tissue", "result": "good"},
      {"measurement": "translocation of the test substance in the plant", "result": "translocation through the phloem to the ears both in the main shoot and the tillers"}
    ]}
  ]
}
